We go through eleven cell lines from the supplement of paper PMC10307832.

Compound in test [1]: C1CC(C2=C(C1)C3=C(N2)C=CC(=C3)Cl)C(=O)N [Selisistat]
Nature of the test: relative viability (nuclei count vs DMSO), 5 days (fraction); higher = more cells survive. Summed up:
(§1)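 Viability here means nuclei in treated wells divided by nuclei in vehicle wells, reported as the median across plates. Only plates with control CV below 25% and at least one doubling passed. Lung cancer cell lines in 1536-well plates were exposed to five √10-spaced library-drug doses for 5 days and counted from 4× Hoechst images in MetaXpress.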

Compound in test [2]: c1ccc2c(CCNc3ccc(Nc4ccncc4)cc3)c[nH]c2c1 [Serdemetan]
The test is described as above. Summed up: as §1

Take NCI-H2342: the relative viability in test [1] (0.4 µM) was 1.06; in test [1] (1.265 µM) it was 0.881; in test [1] (4 µM), 0.908; in test [1] (12.65 µM), 0.94; in test [1] (40 µM), 0.928; in test [2] (0.04 µM), 1.17. The relative viability was determined as 1.13 in test [2] (0.1265 µM), 1.08 in test [2] (0.4 µM), 0.84 in test [2] (1.265 µM) and 0.69 in test [2] (4 µM).
With NCI-H2347, the relative viability turned out to be 1.02 in test [1] (0.4 µM); 1.09 in test [1] (1.265 µM); 0.716 in test [1] (4 µM); 0.993 in test [1] (12.65 µM); 0.99 in test [1] (40 µM); 0.982 in test [2] (0.04 µM). For the same cell line, the relative viability is 0.887 in test [2] (0.1265 µM), 0.903 in test [2] (0.4 µM), 0.603 in test [2] (1.265 µM) and 0.7 in test [2] (4 µM).
In the case of NCI-H2405, the relative viability turned out to be 1.06 in test [1] (0.4 µM); 0.88 in test [1] (1.265 µM); 0.657 in test [1] (4 µM); 0.984 in test [1] (12.65 µM); 0.992 in test [1] (40 µM); 0.99 in test [2] (0.04 µM). Moreover, the relative viability is 1.01 in test [2] (0.1265 µM), 0.984 in test [2] (0.4 µM), 0.921 in test [2] (1.265 µM) and 0.859 in test [2] (4 µM).
In the case of NCI-H3122, the relative viability worked out at 1.03 in test [1] (0.4 µM); 1.07 in test [1] (1.265 µM); 0.782 in test [1] (4 µM); 1.03 in test [1] (12.65 µM); 1.02 in test [1] (40 µM); 0.995 in test [2] (0.04 µM). Besides, the relative viability in test [2] (0.1265 µM) was 0.984; in test [2] (0.4 µM), 0.948; in test [2] (1.265 µM), 0.758; in test [2] (4 µM), 1.02.
For PC-3 [JPC-3], the relative viability in test [1] (0.4 µM) was determined as 1.14; in test [1] (1.265 µM) it was 1.04; in test [1] (4 µM), 0.85; in test [1] (12.65 µM), 1.07; in test [1] (40 µM), 0.948; in test [2] (0.04 µM), 1.04. The relative viability in test [2] (0.1265 µM) was found to be 0.961; in test [2] (0.4 µM), 0.702; in test [2] (1.265 µM), 0.98; in test [2] (4 µM), 1.06.
On to PC-14, for which the relative viability turned out to be 1.02 in test [1] (0.4 µM); 0.957 in test [1] (1.265 µM); 0.891 in test [1] (4 µM); 0.954 in test [1] (12.65 µM); 1.09 in test [1] (40 µM); 0.966 in test [2] (0.04 µM). For the same cell line, the relative viability in test [2] (0.1265 µM) is 0.972; in test [2] (0.4 µM), 0.689; in test [2] (1.265 µM), 0.907; in test [2] (4 µM) it was 0.728.
Regarding RERF-LC-KJ, the relative viability is 1.06 in test [1] (0.4 µM); 0.969 in test [1] (1.265 µM); 0.927 in test [1] (4 µM); 0.836 in test [1] (12.65 µM); 0.87 in test [1] (40 µM); 0.99 in test [2] (0.04 µM). Moreover, the relative viability in test [2] (0.1265 µM) came out at 0.948; in test [2] (0.4 µM) it was 0.93; in test [2] (1.265 µM) it was 0.942; in test [2] (4 µM), 0.939.
As for SK-LU-1, the relative viability in test [1] (0.4 µM) came to 1.08; in test [1] (1.265 µM), 1.07; in test [1] (4 µM) it was 1.08; in test [1] (12.65 µM), 1.08; in test [1] (40 µM), 1.13; in test [2] (0.04 µM), 1.02. Also, the relative viability in test [2] (0.1265 µM) was 0.999; in test [2] (0.4 µM), 1.1; in test [2] (1.265 µM), 0.802; in test [2] (4 µM), 0.828.
Turning to SK-MES-1, the relative viability in test [1] (0.4 µM) amounted to 1.09; in test [1] (1.265 µM) it was 0.986; in test [1] (4 µM) it was 0.955; in test [1] (12.65 µM), 0.93; in test [1] (40 µM) it was 0.976; in test [2] (0.04 µM), 0.959. In addition, the relative viability in test [2] (0.1265 µM) amounted to 1.01; in test [2] (0.4 µM), 0.971; in test [2] (1.265 µM), 0.831; in test [2] (4 µM), 0.741.
Consider SW 900, for which the relative viability in test [1] (0.4 µM) stood at 1; in test [1] (1.265 µM), 0.801; in test [1] (4 µM), 0.656; in test [1] (12.65 µM) it was 0.846; in test [1] (40 µM), 0.858; in test [2] (0.04 µM) it was 0.876. For the same cell line, the relative viability in test [2] (0.1265 µM) was found to be 0.941; in test [2] (0.4 µM), 0.926; in test [2] (1.265 µM), 0.547; in test [2] (4 µM) it was 0.666.
For the cell line SW 1573, the relative viability turned out to be 1.12 in test [1] (0.4 µM); 0.89 in test [1] (1.265 µM); 0.896 in test [1] (4 µM); 1.03 in test [1] (12.65 µM); 1.05 in test [1] (40 µM); 0.904 in test [2] (0.04 µM). Besides, the relative viability in test [2] (0.1265 µM) was determined as 1.11; in test [2] (0.4 µM) it was 0.966; in test [2] (1.265 µM), 0.48; in test [2] (4 µM), 0.343.
